pIC50: −log10 of the molar value.
What follows are compounds tested against human kinase Mps-1 (Homo sapiens (Human), UniProt P33981) (assay: Mps-1 Kinase Assay (TR-FRET)). Conditions: N-terminally GST-tagged human full length recombinant Mps-1; 10 μM ATP; 1 μM peptide substrate; 60 min at 22° C.; read-out: Mps1 IC50.
Format: biochemical
Description: The human kinase Mps-1 phosphorylates a biotinylated substrate peptide. Detection of the phosphorylated product is achieved by time-resolved fluorescence resonance energy transfer (TR-FRET) from Europium-labelled anti-phospho-Serine/Threonine antibody as donor to streptavidin labelled with cross-linked allophycocyanin (SA-XLent) as acceptor. Compounds are tested for their inhibition of the kinase activity.
N-terminally GST-tagged human full length recombinant Mps-1 kinase (purchased from Invitrogen, Karslruhe, Germany, cat. no PV4071) was used. As substrate for the kinase reaction a biotinylated peptide of the amino-acid sequence […] (C-terminus in amide form, purchased from Biosynthan GmbH, Berlin) was used.
The concentration of Mps-1 in the assay was adjusted to the activity of the enzyme lot and was chosen appropriate to have the assay in the linear range, typical enzyme concentrations were in the range of about 1 nM (final conc. in the 5 μl assay volume).
The resulting mixture was incubated 1 h at 22° C. to allow the binding of the phosphorylated peptide to the anti-phospho(Ser/Thr)-Europium-antibody. Subsequently the amount of phosphorylated substrate was evaluated by measurement of the resonance energy transfer from the Europium-labelled anti-phospho(Ser/Thr) antibody to the Streptavidin-XLent.

Sequence of human kinase Mps-1 (P33981 whole entry): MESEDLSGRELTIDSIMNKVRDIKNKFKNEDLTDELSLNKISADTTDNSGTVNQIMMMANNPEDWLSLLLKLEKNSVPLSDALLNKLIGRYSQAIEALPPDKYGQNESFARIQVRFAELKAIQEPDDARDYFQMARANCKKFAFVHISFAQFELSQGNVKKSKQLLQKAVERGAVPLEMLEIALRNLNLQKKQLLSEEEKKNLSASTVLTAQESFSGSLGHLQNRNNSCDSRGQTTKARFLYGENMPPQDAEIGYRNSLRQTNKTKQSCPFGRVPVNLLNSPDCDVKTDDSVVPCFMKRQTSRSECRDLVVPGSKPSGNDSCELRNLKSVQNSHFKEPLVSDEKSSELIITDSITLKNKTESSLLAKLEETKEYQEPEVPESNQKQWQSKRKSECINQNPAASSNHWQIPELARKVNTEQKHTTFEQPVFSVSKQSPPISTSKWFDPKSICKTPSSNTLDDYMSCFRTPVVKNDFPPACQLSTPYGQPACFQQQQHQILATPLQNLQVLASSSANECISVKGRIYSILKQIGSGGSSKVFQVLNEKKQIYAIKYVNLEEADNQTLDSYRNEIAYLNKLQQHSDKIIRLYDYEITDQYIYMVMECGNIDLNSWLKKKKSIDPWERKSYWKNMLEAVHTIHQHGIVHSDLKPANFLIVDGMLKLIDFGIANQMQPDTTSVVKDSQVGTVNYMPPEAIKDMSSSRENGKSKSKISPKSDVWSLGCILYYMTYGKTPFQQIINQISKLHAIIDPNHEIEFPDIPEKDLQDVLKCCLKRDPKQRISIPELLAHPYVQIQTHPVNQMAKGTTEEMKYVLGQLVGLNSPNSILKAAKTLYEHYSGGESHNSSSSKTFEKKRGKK

| pIC50 | Compound |
| --- | --- |
| 8.43 | O=C(NC1CC1)c1ccc(-c2cnc3c(SCCCCO)nc(-c4ccccc4)cn23)cc1 [Example 35, N-cyclopropyl-4-{8-[(4-hydroxybutyl)sulfanyl]-6-phenylimidazo[1,2-a]pyrazin-3-yl}benzamide] |
| 7.86 | CC(C)S(=O)(=O)c1nc(-c2ccccc2)cn2c(-c3ccc(C(=O)NC4CC4)cc3)cnc12 [Example 20B, N-cyclopropyl-4-[8-(isopropylsulfonyl)-6-phenylimidazo[1,2-a]pyrazin-3-yl]benzamide] |

| Compound | pIC50 |
| --- | --- |
| CCS(=O)(=O)c1nc(-c2ccccc2)cn2c(-c3ccc(C(=O)NC4CC4)cc3)cnc12 [Example 5B, N-Cyclopropyl-4-[8-(ethylsulfonyl)-6-phenylimidazo[1,2-a]pyrazin-3-yl]benzamide] | 8.11 |

Reference: patent publication US9468642B2, “Imidazopyrazines” (BAYER INTELLECTUAL PROPERTY GMBH, priority 2011, dated 2016)
